pIC50: −log10 of the molar value.

Sequence of Tie-2 (Q02763 23-1124): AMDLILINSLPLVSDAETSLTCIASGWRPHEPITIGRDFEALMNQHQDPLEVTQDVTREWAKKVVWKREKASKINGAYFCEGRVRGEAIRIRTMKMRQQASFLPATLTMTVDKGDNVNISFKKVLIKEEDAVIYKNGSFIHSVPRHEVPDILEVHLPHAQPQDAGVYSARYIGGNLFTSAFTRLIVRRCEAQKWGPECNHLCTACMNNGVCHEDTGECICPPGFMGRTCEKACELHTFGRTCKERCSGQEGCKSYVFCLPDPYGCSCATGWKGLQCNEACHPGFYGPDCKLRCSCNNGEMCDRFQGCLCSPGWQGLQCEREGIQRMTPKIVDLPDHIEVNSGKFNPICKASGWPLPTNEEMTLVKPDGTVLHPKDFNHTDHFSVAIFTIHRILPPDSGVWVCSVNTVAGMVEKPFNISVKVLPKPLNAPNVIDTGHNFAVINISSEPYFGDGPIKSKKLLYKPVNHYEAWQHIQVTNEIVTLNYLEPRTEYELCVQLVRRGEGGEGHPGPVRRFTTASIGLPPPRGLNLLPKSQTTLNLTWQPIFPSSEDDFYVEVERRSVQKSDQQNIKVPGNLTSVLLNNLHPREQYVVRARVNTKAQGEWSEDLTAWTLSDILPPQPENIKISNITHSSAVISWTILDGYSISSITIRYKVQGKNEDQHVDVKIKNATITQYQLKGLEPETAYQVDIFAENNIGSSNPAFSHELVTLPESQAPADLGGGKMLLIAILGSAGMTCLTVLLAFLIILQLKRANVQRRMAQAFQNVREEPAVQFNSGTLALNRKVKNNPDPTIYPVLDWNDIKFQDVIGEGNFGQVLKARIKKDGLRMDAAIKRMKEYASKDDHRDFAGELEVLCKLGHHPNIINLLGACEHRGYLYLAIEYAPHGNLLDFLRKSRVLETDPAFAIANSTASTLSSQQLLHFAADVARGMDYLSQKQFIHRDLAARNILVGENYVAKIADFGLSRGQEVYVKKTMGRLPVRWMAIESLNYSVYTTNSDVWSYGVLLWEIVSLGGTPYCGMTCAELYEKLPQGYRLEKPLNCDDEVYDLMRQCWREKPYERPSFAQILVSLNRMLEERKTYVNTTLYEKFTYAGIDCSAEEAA

The target of the experiment is Tie-2 (Homo sapiens, UniProt Q02763). Description: Tie-2 tyrosine kinase activity assay (luciferase/luciferin ATP consumption with pEY substrate, or 33P-ATP incorporation). The settings on record: human enzyme Tie-2. Format: biochemical. Summed up:
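Values are IC50 categories (A <50 nM to D ≥10,000 nM), with Ki obtainable by fitting rates to a tight-binding model. Assay formats: 33P-ATP phosphate transfer to adsorbed generic substrate counted by scintillation, or luciferase-detected ATP depletion using pEY.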
Molecule `CC1CN(c2nsnc2OCc2ccncc2)CC(C)N1C(=O)Nc1cccc(C(F)(F)F)c1` (stereo not shown) [Example 69, 2,6-dimethyl-4-{4-[(pyridin-4-ylmethyl)oxy]-1,2,5-thiadiazol-3-yl}-N-[3-(trifluoromethyl)phenyl]piperazine-1-carboxamide] had a pIC50 of 6.00 to 7.30.

`N#Cc1nc(OCc2ccncc2)c(N2CCN(C(=O)Nc3cc(C(F)(F)F)cc(C(F)(F)F)c3)CC2)nc1C#N` [Example 90, N-[3,5-bis(trifluoromethyl)phenyl]-4-{5,6-dicyano-3-[(pyridin-4-ylmethyl)oxy]pyrazin-2-yl}piperazine-1-carboxamide] had a pIC50 of 6.00 to 7.30. `O=C(Nc1cc(C(F)(F)F)cc(C(F)(F)F)c1)Nc1cc(COc2nsnc2N2CCN(C(=O)Nc3cc(C(F)(F)F)cc(C(F)(F)F)c3)CC2)ccn1` [Example 130, N-[3,5-bis(trifluoromethyl)phenyl]-4-{4-[({2-[({[3,5-bis(trifluoromethyl)phenyl]amino}carbonyl)amino]pyridin-4-yl}methyl)oxy]-1,2,5-thiadiazol-3-yl}piperazine-1-carboxamide] gave a pIC50 of 5.00 to 6.00. Turning to `CC1CN(c2nsnc2OCc2ccncc2)CCN1C(=O)Nc1cccc(C(F)(F)F)c1` (stereo not shown) [Example 41, 2-methyl-4-{4-[(pyridin-4-ylmethyl)oxy]-1,2,5-thiadiazol-3-yl}-N-[3-(trifluoromethyl)phenyl]piperazine-1-carboxamide], the pIC50 is 6.00 to 7.30.

In turn, `CCc1cc(NC(=O)N2CCN(c3nsnc3OCc3ccnc(N)n3)CC2)cc(C(F)(F)F)c1` [Example 260, 4-(4-{[(2-aminopyrimidin-4-yl)methyl]oxy}-1,2,5-thiadiazol-3-yl)-N-[3-ethyl-5-(trifluoromethyl)phenyl]piperazine-1-carboxamide] showed a negative-log IC50 (pIC50) of over 7.30.

`CC(C)(C)OC(=O)Nc1cc(COc2nsnc2N2CCN(C(=O)Nc3cc(C(F)(F)F)cc(C(F)(F)F)c3)CC2)ccn1` [Example 100, 1,1-dimethylethyl {4-[({4-[4-({[3,5-bis(trifluoromethyl)phenyl]amino}carbonyl)piperazin-1-yl]-1,2,5-thiadiazol-3-yl}oxy)methyl]pyridin-2-yl}carbamate] showed a pIC50 of over 7.30. Turning to `CC(=O)Nc1cc(COc2nsnc2N2CCN(C(=O)Nc3cc(C(F)(F)F)cc(C(F)(F)F)c3)CC2)ccn1` [Example 129, 4-[4-({[2-(acetylamino)pyridin-4-yl]methyl}oxy)-1,2,5-thiadiazol-3-yl]-N-[3,5-bis(trifluoromethyl)phenyl]piperazine-1-carboxamide], the pIC50 is over 7.30. For `O=C(Nc1cc(C(F)(F)F)cc(C(F)(F)F)c1)NC1CCN(c2nccnc2OCc2ccncc2)C1` (stereo not shown) [Example 67, N-[3,5-bis(trifluoromethyl)phenyl]-N′-(1-{3-[(pyridin-4-ylmethyl)oxy]pyrazin-2-yl}pyrrolidin-3-yl)urea], the pIC50 is 6.00 to 7.30. Regarding `N#Cc1nccc(COc2nsnc2N2CCN(C(=O)Nc3cc(C(F)(F)F)cc(C(F)(F)F)c3)CC2)n1` [Example 134, N-[3,5-bis(trifluoromethyl)phenyl]-4-(4-{[(2-cyanopyrimidin-4-yl)methyl]oxy}-1,2,5-thiadiazol-3-yl)piperazine-1-carboxamide], the pIC50 was at most 5.00.

As to `O=C(Nc1cccc(C(F)(F)F)c1)N1CCN(c2nccnc2OCc2ccncc2)CC1` [Example 39, 4-{3-[(pyridin-4-ylmethyl)oxy]pyrazin-2-yl}-N-[3-(trifluoromethyl)phenyl]piperazine-1-carboxamide], the negative-log IC50 (pIC50) was over 7.30. Take `CCc1cc(Br)cc(NC(=O)N2CCN(c3nccnc3OCc3ccnc(N)n3)CC2)c1` [Example 236, 4-(3-{[(2-aminopyrimidin-4-yl)methyl]oxy}pyrazin-2-yl)-N-(3-bromo-5-ethylphenyl)piperazine-1-carboxamide]: the pIC50 is over 7.30. Turning to `C[C@H]1CN(c2nccnc2OCc2ccncc2)CCN1C(=O)Nc1cccc(C(F)(F)F)c1` [Example 81, (2S)-2-methyl-4-{3-[(pyridin-4-ylmethyl)oxy]pyrazin-2-yl}-N-[3-(trifluoromethyl)phenyl]piperazine-1-carboxamide], the pIC50 was over 7.30.

Take `O=C(Nc1cc(C(F)(F)F)cc(C(F)(F)F)c1)N1CCN(c2nsnc2OCc2ccnc(N3CCOC3=O)c2)CC1` [Example 159, N-[3,5-bis(trifluoromethyl)phenyl]-4-[4-({[2-(2-oxo-1,3-oxazolidin-3-yl)pyridin-4-yl]methyl}oxy)-1,2,5-thiadiazol-3-yl]piperazine-1-carboxamide]: the pIC50 was at most 5.00.

Turning to `O=C(Nc1cccc(C(F)(F)F)c1)N1CCN(c2ccccc2OCc2ccncc2)CC1` [Example 73, 4-{2-[(pyridin-4-ylmethyl)oxy]phenyl}-N-[3-(trifluoromethyl)phenyl]piperazine-1-carboxamide], the pIC50 is 6.00 to 7.30. In turn, `N#Cc1nc(OCc2ccncc2)c(N2CCN(C(=O)Nc3cccc(C(F)(F)F)c3)CC2)nc1C#N` [Example 91, 4-{5,6-dicyano-3-[(pyridin-4-ylmethyl)oxy]pyrazin-2-yl}-N-[3-(trifluoromethyl)phenyl]piperazine-1-carboxamide] had a pIC50 of 6.00 to 7.30.

`CCCNc1cc(COc2nsnc2N2CCNCC2)ccn1` [Example 106, 4-{[(4-piperazin-1-yl-1,2,5-thiadiazol-3-yl)oxy]methyl}-N-propylpyridin-2-amine] gave a negative logarithm of the IC50 (pIC50) of at most 5.00. For the molecule `CC(C)CNC(=O)N1CCN(c2ncccc2OCc2ccnc(N)n2)CC1` [Example 220, 4-(3-{[(2-aminopyrimidin-4-yl)methyl]oxy}pyridin-2-yl)-N-(2-methylpropyl)piperazine-1-carboxamide], the pIC50 was at most 5.00. Next, `Nc1nccc(COc2ccccc2N2CCN(C(=O)Nc3cccc(F)c3)CC2)n1` [Example 269, 4-(2-{[(2-aminopyrimidin-4-yl)methyl]oxy}phenyl)-N-(3-fluorophenyl)piperazine-1-carboxamide]: 5.00 to 6.00; `Nc1nccc(COc2cccnc2N2CCN(C(=O)Nc3cccc(OC(F)(F)F)c3)CC2)n1` [Example 168, 4-(3-{[(2-aminopyrimidin-4-yl)methyl]oxy}pyridin-2-yl)-N-{3-[(trifluoromethyl)oxy]phenyl}piperazine-1-carboxamide]: over 7.30. `Nc1nccc(COc2cccnc2N2CCN(C(=O)Nc3cc(C(F)(F)F)cc(C(F)(F)F)c3)CC2)n1` [Example 142, 4-(3-{[(2-aminopyrimidin-4-yl)methyl]oxy}pyridin-2-yl)-N-[3,5-bis(trifluoromethyl)phenyl]piperazine-1-carboxamide] showed a pIC50 of over 7.30. In the case of `O=C(Nc1cc(C(F)(F)F)cc(C(F)(F)F)c1)N1CCN(c2nccnc2OCc2ccnc(F)c2)CC1` [Example 89, N-[3,5-bis(trifluoromethyl)phenyl]-4-(3-{[(2-fluoropyridin-4-yl)methyl]oxy}pyrazin-2-yl)piperazine-1-carboxamide], the pIC50 was 6.00 to 7.30.

Consider `CN(C)CCNc1nccc(COc2nsnc2N2CCN(C(=O)Nc3cc(C(F)(F)F)cc(C(F)(F)F)c3)CC2)n1` [Example 119, N-[3,5-bis(trifluoromethyl)phenyl]-4-(4-{[(2-{[2-(dimethylamino)ethyl]amino}pyrimidin-4-yl)methyl]oxy}-1,2,5-thiadiazol-3-yl)piperazine-1-carboxamide], for which the pIC50 is 6.00 to 7.30. In turn, `CCc1cc(NC(=O)N2CCN(c3ccccc3OCc3ccnc(N)n3)CC2)cc(C(F)(F)F)c1` [Example 277, 4-(2-{[(2-aminopyrimidin-4-yl)methyl]oxy}phenyl)-N-[3-ethyl-5-(trifluoromethyl)phenyl]piperazine-1-carboxamide] had a pIC50 of over 7.30. For `CC1CN(C(=O)Nc2cc(C(F)(F)F)cc(C(F)(F)F)c2)CCN1c1nccnc1OCc1ccncc1` (stereo not shown) [Example 70, N-[3,5-bis(trifluoromethyl)phenyl]-3-methyl-4-{3-[(pyridin-4-ylmethyl)oxy]pyrazin-2-yl}piperazine-1-carboxamide], the pIC50 was over 7.30. In turn, `O=C(Nc1cc(C(F)(F)F)cc(C(F)(F)F)c1)N1CCN(c2nsnc2Oc2ccc3[nH]ccc3c2)CC1` [Example 12] showed a pIC50 of 6.00 to 7.30.

`CCCCNc1cc(COc2nsnc2N2CCN(C(=O)Nc3cc(C(F)(F)F)cc(C(F)(F)F)c3)CC2)ccn1` [Example 114, N-[3,5-bis(trifluoromethyl)phenyl]-4-[4-({[2-(butylamino)pyridin-4-yl]methyl}oxy)-1,2,5-thiadiazol-3-yl]piperazine-1-carboxamide] showed a pIC50 of 6.00 to 7.30. Under `CCc1cccc(NC(=O)N2C(C)CN(c3nccnc3OCc3ccncc3)CC2C)c1` (stereo not shown) [Example 94, N-(3-ethylphenyl)-2,6-dimethyl-4-{3-[(pyridin-4-ylmethyl)oxy]pyrazin-2-yl}piperazine-1-carboxamide] stands 6.00 to 7.30; under `CN1CCN(CC(=O)Nc2cc(COc3cccnc3N3CCN(C(=O)Nc4cccc(C5CC5)c4)CC3)ccn2)CC1` [Example 209, N-(3-cyclopropylphenyl)-4-(3-{[(2-{[(4-methylpiperazin-1-yl)acetyl]amino}pyridin-4-yl)methyl]oxy}pyridin-2-yl)piperazine-1-carboxamide], over 7.30; under `O=C(Nc1cc(COc2nsnc2N2CCN(C(=O)Nc3cc(C(F)(F)F)cc(C(F)(F)F)c3)CC2)ccn1)OCCN1CCOCC1` [Example 141, 2-morpholin-4-ylethyl {4-[({4-[4-({[3,5-bis(trifluoromethyl)phenyl]amino}carbonyl)piperazin-1-yl]-1,2,5-thiadiazol-3-yl}oxy)methyl]pyridin-2-yl}carbamate], over 7.30. Take `O=C(Nc1cc(C(F)(F)F)cc(C(F)(F)F)c1)N1CCN(c2nsnc2OCc2ccnc(Br)c2)CC1` [Example 87, N-[3,5-bis(trifluoromethyl)phenyl]-4-(4-{[(2-bromopyridin-4-yl)methyl]oxy}-1,2,5-thiadiazol-3-yl)piperazine-1-carboxamide]: the pIC50 is 5.00 to 6.00.

Molecule `CCc1cc(CC)cc(NC(=O)N2CCN(c3ccccc3OCc3ccnc(N)n3)CC2)c1` [Example 279, 4-(2-{[(2-aminopyrimidin-4-yl)methyl]oxy}phenyl)-N-(3,5-diethylphenyl)piperazine-1-carboxamide] had a pIC50 of over 7.30.

(Values after patent publication US8013156B2 (Exelixis, Inc., priority 2003, dated 2011).)
